Reference: US20040054130A1, “Insulin potentiating peptides” (priority 2000, published 2004)
Ends that are not written are not given here.

Assays:
[1] = system: normal male Wistar rats; experiment: Intravenous insulin tolerance test (IVITT); type: in vivo, rat; details: 5 μmol/kg i.v.; for Reduction in Blood Glucose: 0.1 U insulin/kg
Experimental: IVITTs (0.1 U insulin/kg body weight) were performed on overnight-fasted Wistar male rats as previously described (Lim et al, 1992). Blood samples were taken for glucose estimation at 15, 30, 45, 60 min after the commencement of the tests. Six animals in each group were used.
IVITTs were performed on normal male Wistar rats after a single intravenous (i.v.) injection of the hGH peptide analogues at a dose of 5 μmol/kg body weight. The insulin-potentiating effects of peptides 6, 7, 8 and 10 on decreasing blood glucose levels of treated animals became significant since 30 min after the commencement of the test. Bioactivity was retained when the Arg^8 or Phe^10 residue of Asu^11-hGH(6-13) peptide was substituted with Lys or Tyr respectively (1.92±0.17 or 1.62±0.18 vs. 1.65±0.12 mmol/L at 45 min), as shown in Table 3. However, no insulin-potentiating effect was observed when either Arg^8 or Phe^10 was substituted by Gly (0.92±0.08 or 1.08±0.08 mmol/L respectively vs. 1.00±0.10 mmol/L of control at 45 min). Asu^11-hGH(8-13) also elicited this insulin-potentiating effect, but with lower potency.

[2] = system: insulin-resistant Zucker fatty (fa/fa) rats; details: glucose clamp technique; cited from earlier work
[3] = target: insulin receptor tyrosine kinase (Homo sapiens, UniProt P06213); details: cited from earlier work

Leu-Ser-Arg-Leu-Phe-Asu-Asn-Ala (LSRLFDNA-NH2; not fully specified; printed as Leu-Ser-Arg-Leu-Phe-Asu-Asn-Ala) [Peptide 7]
insulin-potentiating effect on decreasing blood glucose in IVITT (in words) ([1]; from 30 min after commencement): significant
Reduction in Blood Glucose ([1]; 15 min): 1.08 ± 0.09 mmol/L
Reduction in Blood Glucose ([1]; 30 min): 1.38 ± 0.13 mmol/L
Reduction in Blood Glucose ([1]; 45 min): 1.65 ± 0.12 mmol/L
Reduction in Blood Glucose ([1]; 45 min, listed as Asu^11-hGH(6-13)): 1.65 ± 0.12 mmol/L
Reduction in Blood Glucose ([1]; 60 min): 1.77 ± 0.19 mmol/L
glucose tolerance [2]: improve glucose tolerance
effect on insulin receptor tyrosine kinase activity [3]: stimulating
